Data published in PMC11995724, “Antibiotic target discovery by integrated phenotypic and activity-based profiling of electrophilic fragments” (Cell chemical biology, 2025).

assay: in vitro; conditions: human, hek293t cells

Compared with `CSc1ccc(C(=O)CCl)cc1` [10-E07, 2-chloro-1-[4-(methylsulfanyl)phenyl]ethan-1-one], `CCc1ccc(C(=O)CCl)cc1` [10-F18, 2-chloro-1-(4-ethylphenyl)ethan-1-one] is lower in viability at 48 h, 25 µM: 1.88% for the first, 1.07% for the second.

Going from `CC(C)C(=O)Nc1ccc(C(=O)C(C)Cl)cc1` (centres unmarked) [10-E08, N-[4-(2-chloropropanoyl)phenyl]-2-methylpropanamide] to `Cc1ccc(C(=O)C(C)Cl)cc1` (centres unmarked) [10-F20, 2-chloro-1-(4-methylphenyl)propan-1-one], the viability at 48 h, 25 µM falls from 100% to 80.5%.

Compared with `O=C(CCl)c1ccc2c(c1)CCN(C(=O)C(F)(F)F)C2` [10-E09, 1-[6-(2-chloroacetyl)-1,2,3,4-tetrahydroisoquinolin-2-yl]-2,2,2-trifluoroethan-1-one], `CCS(=O)(=O)N1CCc2cc(C(=O)CCl)ccc21` [10-E18, 2-chloro-1-[1-(ethanesulfonyl)-2,3-dihydro-1H-indol-5-yl]ethan-1-one] is lower in viability at 48 h, 25 µM: 4.03% for the first, 1.16% for the second.

Compared with `Cc1cc(C(=O)C(C)Cl)c(C)n1-c1ccc(OC(F)F)cc1` (centres unmarked) [10-E10, 2-chloro-1-{1-[4-(difluoromethoxy)phenyl]-2,5-dimethyl-1H-pyrrol-3-yl}propan-1-one], `Cc1cc(C(=O)CCl)c(C)n1-c1ccc(OC(F)(F)F)cc1` [10-G04, 2-chloro-1-{2,5-dimethyl-1-[4-(trifluoromethoxy)phenyl]-1H-pyrrol-3-yl}ethan-1-one] is lower in viability at 48 h, 25 µM: 84.6% for the first, 0.243% for the second.

First: O=C(CCl)C1CCCC2(CC2)C1 (centres unmarked) [10-E11, 2-chloro-1-{spiro[2.5]octan-5-yl}ethan-1-one]
Second: N#CC(C(=O)CCl)=C1NC(C23CC4CC(CC(C4)C2)C3)=CS1 [10-F14, 2-[4-(adamantan-1-yl)-2,3-dihydro-1,3-thiazol-2-ylidene]-4-chloro-3-oxobutanenitrile]
The viability at 48 h, 25 µM of the first is higher: 79.6% for the first, 61.8% for the second.

First: CCn1c(-c2ccccc2)c(C(=O)CCl)c2ccccc21 [10-E12, 2-chloro-1-(1-ethyl-2-phenyl-1H-indol-3-yl)ethan-1-one]
Second: O=C(CCl)c1ccc(Oc2ccccc2)cc1 [10-G20, 2-chloro-1-(4-phenoxyphenyl)ethan-1-one]
The viability at 48 h, 25 µM of the first is higher: 0.509% for the first, 0.299% for the second.

Compared with `CCn1ncc(C(=O)CCl)n1` [10-E13, 2-chloro-1-(2-ethyl-2H-1,2,3-triazol-4-yl)ethan-1-one], `CCOc1ccc(C(=O)CCl)cc1` [10-F12, 2-chloro-1-(4-ethoxyphenyl)ethan-1-one] is lower in viability at 48 h, 25 µM: 87.2% for the first, 1.95% for the second.

Compared with `Cn1c(N)c(C(=O)CCl)c(=O)n(C)c1=O` [10-E14, 6-amino-5-(2-chloroacetyl)-1,3-dimethyl-1,2,3,4-tetrahydropyrimidine-2,4-dione], `CC(Cl)C(=O)c1c(N)n(C)c(=O)n(C)c1=O` (centres unmarked) [10-F22, 6-amino-5-(2-chloropropanoyl)-1,3-dimethyl-1,2,3,4-tetrahydropyrimidine-2,4-dione] is lower in viability at 48 h, 25 µM: 89.9% for the first, 87.8% for the second.

First: O=C(CCl)Cc1ccc(Cl)c(Cl)c1 [10-E15, 1-chloro-3-(3,4-dichlorophenyl)propan-2-one]
Second: O=C(CCl)Cc1cccc(Cl)c1 [10-E17, 1-chloro-3-(3-chlorophenyl)propan-2-one]
The viability at 48 h, 25 µM of the first is higher: 1.56% for the first, 1.29% for the second.

Going from `O=C(CCl)c1cc(Cl)ccc1Cl` [10-E16, 2-chloro-1-(2,5-dichlorophenyl)ethan-1-one] to `COc1ccc(C(=O)CCl)c(OC)c1` [10-G18, 2-chloro-1-(2,4-dimethoxyphenyl)ethan-1-one], the viability at 48 h, 25 µM rises from 4.26% to 66.7%.

Compared with `O=C(CCl)Cc1ccc(F)cc1Cl` [10-E19, 1-chloro-3-(2-chloro-4-fluorophenyl)propan-2-one], `O=C(CCl)Cc1ccc(F)cc1F` [10-G17, 1-chloro-3-(2,4-difluorophenyl)propan-2-one] is higher in viability at 48 h, 25 µM: 1.31% for the first, 36.8% for the second.

Going from `O=C1C=CC(=O)N1CCc1ccccc1` [10-E20, 1-(2-phenylethyl)-2,5-dihydro-1H-pyrrole-2,5-dione] to `O=C1C=CC(=O)N1CCc1ccccc1F` [10-G03, 1-[2-(2-fluorophenyl)ethyl]-2,5-dihydro-1H-pyrrole-2,5-dione], the viability at 48 h, 25 µM rises from 4.04% to 11.2%.

Compared with `O=C(O)C(c1ccccc1)N1C(=O)C=CC1=O` (centres unmarked) [10-E21, 2-(2,5-dioxo-2,5-dihydro-1H-pyrrol-1-yl)-2-phenylacetic acid], `Cc1cc(C(=O)O)ccc1N1C(=O)C=CC1=O` [10-G22, 4-(2,5-dioxo-2,5-dihydro-1H-pyrrol-1-yl)-3-methylbenzoic acid] is higher in viability at 48 h, 25 µM: 92.4% for the first, 107% for the second.

First: O=C(O)c1csc(C(=O)CCl)c1 [10-E22, 5-(2-chloroacetyl)thiophene-3-carboxylic acid]
Second: CNC(=O)c1cc(C(=O)CCl)cn1C [10-G10, 4-(2-chloroacetyl)-N,1-dimethyl-1H-pyrrole-2-carboxamide]
The viability at 48 h, 25 µM of the first is higher: 91.8% for the first, 1.73% for the second.

Going from `COc1ccc2[nH]cc(C3=CCN(C(=O)C=CCN(C)C)CC3)c2c1` [10-F03, 4-(dimethylamino)-1-[4-(5-methoxy-1H-indol-3-yl)-1,2,3,6-tetrahydropyridin-1-yl]but-2-en-1-one] to `Cc1ccc(NC(=O)N2CCSSCC2)c(C)c1` [10-F11, N-(2,4-dimethylphenyl)-1,2,5-dithiazepane-5-carboxamide], the viability at 48 h, 25 µM rises from 92.2% to 102%.

Going from `CCN(c1ccc(C(=O)CCl)cc1)S(C)(=O)=O` [10-F04, N-[4-(2-chloroacetyl)phenyl]-N-ethylmethanesulfonamide] to `CN(c1ccc(C(=O)CCl)cc1)S(C)(=O)=O` [10-F19, N-[4-(2-chloroacetyl)phenyl]-N-methylmethanesulfonamide], the viability at 48 h, 25 µM rises from 22.5% to 74%.

Going from `Cc1cc(C(=O)CCl)c(C)n1-c1ccon1` [10-F06, 2-chloro-1-[2,5-dimethyl-1-(1,2-oxazol-3-yl)-1H-pyrrol-3-yl]ethan-1-one] to `Cc1csc(-n2c(C)cc(C(=O)CCl)c2C)n1` [10-G05, 2-chloro-1-[2,5-dimethyl-1-(4-methyl-1,3-thiazol-2-yl)-1H-pyrrol-3-yl]ethan-1-one], the viability at 48 h, 25 µM rises from 1.56% to 72.5%.

Going from `Cn1c(=O)oc2cc(C(=O)CCl)ccc21` [10-F07, 6-(2-chloroacetyl)-3-methyl-2,3-dihydro-1,3-benzoxazol-2-one] to `CN1C(=O)Cc2cc(C(=O)CCl)ccc21` [10-G07, 5-(2-chloroacetyl)-1-methyl-2,3-dihydro-1H-indol-2-one], the viability at 48 h, 25 µM falls from 110% to 46.1%.

Compared with `CC(C)Cn1c(N)c(C(=O)CCl)c(=O)[nH]c1=O` [10-F08, 6-amino-5-(2-chloroacetyl)-1-(2-methylpropyl)-1,2,3,4-tetrahydropyrimidine-2,4-dione], `COC(=O)c1c(C(=O)CCl)c(C)n(C2CC2)c1C` [10-H03, methyl 4-(2-chloroacetyl)-1-cyclopropyl-2,5-dimethyl-1H-pyrrole-3-carboxylate] is higher in viability at 48 h, 25 µM: 91.2% for the first, 93.4% for the second.

Compared with `C#CCN1C(=O)C=CC1=O` [10-F09, 1-(prop-2-yn-1-yl)-2,5-dihydro-1H-pyrrole-2,5-dione], `CN(C)CCN1C(=O)C=CC1=O` [10-G11, 1-[2-(dimethylamino)ethyl]-2,5-dihydro-1H-pyrrole-2,5-dione] is lower in viability at 48 h, 25 µM: 98.4% for the first, 96.9% for the second.

First: N#Cc1ccc(C(=O)CCl)cc1 [10-F10, 4-(2-chloroacetyl)benzonitrile]
Second: CCOc1ccc(C(=O)C(C)Cl)cc1 (centres unmarked) [10-G06, 2-chloro-1-(4-ethoxyphenyl)propan-1-one]
The viability at 48 h, 25 µM of the first is lower: 49% for the first, 89.3% for the second.

Compared with `Cc1ccc(C)c(N2C(=O)C=CC2=O)c1` [10-F13, 1-(2,5-dimethylphenyl)-2,5-dihydro-1H-pyrrole-2,5-dione], `O=C1C=CC(=O)N1c1ccc(F)cc1F` [10-F15, 1-(2,4-difluorophenyl)-2,5-dihydro-1H-pyrrole-2,5-dione] is lower in viability at 48 h, 25 µM: 109% for the first, 89.5% for the second.

Going from `Cc1cc(C(=O)CCl)c(C)n1CCc1cccs1` [10-F16, 2-chloro-1-{2,5-dimethyl-1-[2-(thiophen-2-yl)ethyl]-1H-pyrrol-3-yl}ethan-1-one] to `Cc1cc(C(=O)CCl)c(C)n1CCc1ccc(F)cc1` [10-G14, 2-chloro-1-{1-[2-(4-fluorophenyl)ethyl]-2,5-dimethyl-1H-pyrrol-3-yl}ethan-1-one], the viability at 48 h, 25 µM rises from 0.304% to 0.499%.

First: O=C1C=CC(=O)N1c1ccc(Oc2ccccc2)cc1 [10-F17, 1-(4-phenoxyphenyl)-2,5-dihydro-1H-pyrrole-2,5-dione]
Second: O=C1C=CC(=O)N1c1cc(C(F)(F)F)ccc1Cl [10-G09, 1-[2-chloro-5-(trifluoromethyl)phenyl]-2,5-dihydro-1H-pyrrole-2,5-dione]
The viability at 48 h, 25 µM of the first is higher: 73.6% for the first, 58.9% for the second.

Going from `CC(C)c1noc2ncc(C(=O)N3CCSSCC3)cc12` [10-F21, 5-[3-(propan-2-yl)-[1,2]oxazolo[5,4-b]pyridine-5-carbonyl]-1,2,5-dithiazepane] to `O=C(CCl)c1cc2c3c(c1)CC(=O)N3CCC2` [10-G16, 6-(2-chloroacetyl)-1-azatricyclo[6.3.1.0,4,12]dodeca-4(12),5,7-trien-2-one], the viability at 48 h, 25 µM falls from 86.3% to 1.58%.

Going from `CN1C(=C(C#N)C(=O)CCl)Sc2ccccc21` [10-G08, 4-chloro-2-(3-methyl-2,3-dihydro-1,3-benzothiazol-2-ylidene)-3-oxobutanenitrile] to `CN1C=CC(=C(C#N)C(=O)CCl)C=C1` [10-G21, 4-chloro-2-(1-methyl-1,4-dihydropyridin-4-ylidene)-3-oxobutanenitrile], the viability at 48 h, 25 µM falls from 77.5% to 1.3%.

Compared with `COC(=O)C(C(=O)CCl)=C1Nc2ccccc2N1` [10-G12, methyl 4-chloro-2-(2,3-dihydro-1H-1,3-benzodiazol-2-ylidene)-3-oxobutanoate], `COC(=O)c1cc(C(=O)CCl)c(C)o1` [10-G13, methyl 4-(2-chloroacetyl)-5-methylfuran-2-carboxylate] is higher in viability at 48 h, 25 µM: 48.7% for the first, 76.4% for the second.

First: O=C(CCl)Cc1ccc(F)cc1 [10-G15, 1-chloro-3-(4-fluorophenyl)propan-2-one]
Second: CC(C)(C)c1ccc(CC(=O)CCl)cc1 [10-G19, 1-(4-tert-butylphenyl)-3-chloropropan-2-one]
The viability at 48 h, 25 µM of the first is higher: 73.7% for the first, 1.53% for the second.
